{
  "source": "paper PMC4076210",
  "about": "“Discovery of Novel AKT Inhibitors with Enhanced Anti-Tumor Effects in Combination with the MEK Inhibitor” (PLoS ONE, 2014)",
  "assay_in_all_cases": "Kinase panel",
  "format_in_all_cases": "biochemical",
  "key": {"[1]": {"target": "T1, c-RAF(h) (Homo sapiens, UniProt P04049)", "T1 construct": "purchased Millipore KinaseProfiler"}, "[2]": {"target": "T2, Lyn(h) (Homo sapiens, UniProt P07948)", "T2 construct": "purchased Millipore KinaseProfiler"}, "[3]": {"target": "T3, Fms(h) (Homo sapiens, UniProt P07333)", "T3 construct": "purchased Millipore KinaseProfiler", "T3 sequence (P07333 20-972)": "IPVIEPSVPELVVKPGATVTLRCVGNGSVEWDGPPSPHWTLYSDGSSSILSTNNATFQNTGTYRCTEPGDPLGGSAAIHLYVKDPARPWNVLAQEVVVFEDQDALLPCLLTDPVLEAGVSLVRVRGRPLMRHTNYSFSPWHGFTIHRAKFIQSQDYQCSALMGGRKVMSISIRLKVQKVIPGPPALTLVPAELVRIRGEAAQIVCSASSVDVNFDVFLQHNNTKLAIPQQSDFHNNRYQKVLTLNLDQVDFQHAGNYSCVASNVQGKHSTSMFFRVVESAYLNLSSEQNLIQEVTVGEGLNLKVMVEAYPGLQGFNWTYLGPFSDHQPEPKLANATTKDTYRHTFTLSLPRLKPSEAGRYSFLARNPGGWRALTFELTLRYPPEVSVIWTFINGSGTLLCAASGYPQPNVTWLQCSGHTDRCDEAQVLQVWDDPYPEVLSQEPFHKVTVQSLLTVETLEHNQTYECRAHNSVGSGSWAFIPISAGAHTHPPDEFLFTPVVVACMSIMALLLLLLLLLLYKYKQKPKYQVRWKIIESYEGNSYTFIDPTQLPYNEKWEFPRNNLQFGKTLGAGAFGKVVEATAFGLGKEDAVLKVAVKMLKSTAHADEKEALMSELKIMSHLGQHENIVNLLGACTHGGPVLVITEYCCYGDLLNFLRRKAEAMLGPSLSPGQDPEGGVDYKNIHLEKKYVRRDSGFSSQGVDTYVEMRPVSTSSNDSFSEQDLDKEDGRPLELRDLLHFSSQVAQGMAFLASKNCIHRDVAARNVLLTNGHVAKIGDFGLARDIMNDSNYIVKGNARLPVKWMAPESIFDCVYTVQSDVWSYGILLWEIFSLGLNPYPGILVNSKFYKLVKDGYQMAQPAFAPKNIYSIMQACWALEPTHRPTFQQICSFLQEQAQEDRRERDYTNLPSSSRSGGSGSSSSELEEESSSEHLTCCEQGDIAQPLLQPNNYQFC"}, "[4]": {"target": "T4, EphB1(h) (Homo sapiens, UniProt P54762)", "T4 construct": "purchased Millipore KinaseProfiler", "T4 sequence (P54762 18-984)": "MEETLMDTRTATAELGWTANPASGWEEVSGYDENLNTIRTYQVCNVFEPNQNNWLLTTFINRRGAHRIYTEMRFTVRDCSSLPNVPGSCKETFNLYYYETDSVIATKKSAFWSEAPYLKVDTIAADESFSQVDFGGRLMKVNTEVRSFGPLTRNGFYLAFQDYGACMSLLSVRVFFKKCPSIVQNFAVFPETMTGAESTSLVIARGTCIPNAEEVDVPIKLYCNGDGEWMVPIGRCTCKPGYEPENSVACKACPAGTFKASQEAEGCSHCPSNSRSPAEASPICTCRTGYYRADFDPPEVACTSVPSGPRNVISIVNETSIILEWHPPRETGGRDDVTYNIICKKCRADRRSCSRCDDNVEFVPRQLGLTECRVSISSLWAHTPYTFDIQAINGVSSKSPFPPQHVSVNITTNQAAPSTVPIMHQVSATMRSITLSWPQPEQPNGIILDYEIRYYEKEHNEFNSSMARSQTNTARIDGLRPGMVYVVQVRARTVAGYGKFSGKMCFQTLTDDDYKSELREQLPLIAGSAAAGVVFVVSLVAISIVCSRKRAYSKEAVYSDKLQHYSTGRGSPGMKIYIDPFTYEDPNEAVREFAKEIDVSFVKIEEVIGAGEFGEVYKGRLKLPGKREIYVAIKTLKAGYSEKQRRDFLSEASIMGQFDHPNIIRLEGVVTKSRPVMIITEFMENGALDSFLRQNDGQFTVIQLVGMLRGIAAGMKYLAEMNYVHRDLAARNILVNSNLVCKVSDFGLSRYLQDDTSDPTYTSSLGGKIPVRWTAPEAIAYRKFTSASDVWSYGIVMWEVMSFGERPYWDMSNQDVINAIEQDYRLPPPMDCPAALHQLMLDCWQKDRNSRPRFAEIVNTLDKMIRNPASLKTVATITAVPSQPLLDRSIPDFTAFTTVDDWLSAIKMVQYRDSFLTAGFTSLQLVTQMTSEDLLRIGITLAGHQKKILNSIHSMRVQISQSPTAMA"}, "[5]": {"target": "T5, SAPK2b(h) (Homo sapiens, UniProt Q15759)", "T5 construct": "purchased Millipore KinaseProfiler"}, "[6]": {"target": "T6, Ret(V804M)(h) (Homo sapiens, UniProt P07949, V804M)", "T6 construct": "purchased Millipore KinaseProfiler", "T6 sequence (P07949 29-1114 V804M)": "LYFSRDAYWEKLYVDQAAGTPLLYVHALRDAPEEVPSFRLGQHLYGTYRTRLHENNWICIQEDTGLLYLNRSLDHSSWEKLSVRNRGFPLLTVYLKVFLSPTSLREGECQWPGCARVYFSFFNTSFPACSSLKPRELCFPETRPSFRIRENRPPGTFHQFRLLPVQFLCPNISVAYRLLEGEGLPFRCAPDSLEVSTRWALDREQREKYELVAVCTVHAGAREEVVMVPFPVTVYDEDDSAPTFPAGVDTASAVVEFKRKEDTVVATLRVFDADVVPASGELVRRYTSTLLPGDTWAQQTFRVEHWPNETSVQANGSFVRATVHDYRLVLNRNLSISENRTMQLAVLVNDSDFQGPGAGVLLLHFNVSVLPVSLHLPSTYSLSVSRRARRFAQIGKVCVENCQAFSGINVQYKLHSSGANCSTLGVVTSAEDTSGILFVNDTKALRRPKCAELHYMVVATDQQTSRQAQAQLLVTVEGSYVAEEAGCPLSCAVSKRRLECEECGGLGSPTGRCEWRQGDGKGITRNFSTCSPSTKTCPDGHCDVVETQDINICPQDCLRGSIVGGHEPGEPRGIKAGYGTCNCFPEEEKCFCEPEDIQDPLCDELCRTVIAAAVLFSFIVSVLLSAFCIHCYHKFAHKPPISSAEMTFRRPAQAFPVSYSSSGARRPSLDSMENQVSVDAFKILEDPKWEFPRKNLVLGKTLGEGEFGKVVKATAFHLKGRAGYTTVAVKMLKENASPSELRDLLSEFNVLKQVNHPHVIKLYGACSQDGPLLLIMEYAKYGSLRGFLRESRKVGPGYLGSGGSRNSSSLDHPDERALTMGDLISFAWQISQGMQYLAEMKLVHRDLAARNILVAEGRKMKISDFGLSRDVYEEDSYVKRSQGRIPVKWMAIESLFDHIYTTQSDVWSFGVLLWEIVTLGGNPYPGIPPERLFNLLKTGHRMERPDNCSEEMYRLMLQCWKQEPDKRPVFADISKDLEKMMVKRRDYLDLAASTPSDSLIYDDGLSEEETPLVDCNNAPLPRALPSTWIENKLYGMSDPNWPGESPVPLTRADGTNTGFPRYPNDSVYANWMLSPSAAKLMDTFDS"}, "[7]": {"target": "T7, PAK4(h) (Homo sapiens, UniProt O96013)", "T7 construct": "purchased Millipore KinaseProfiler"}, "[8]": {"target": "T8, Arg(m) (Mus musculus, UniProt Q4JIM5)", "T8 construct": "purchased Millipore KinaseProfiler", "T8 sequence (Q4JIM5 2-1182 limits assumed)": "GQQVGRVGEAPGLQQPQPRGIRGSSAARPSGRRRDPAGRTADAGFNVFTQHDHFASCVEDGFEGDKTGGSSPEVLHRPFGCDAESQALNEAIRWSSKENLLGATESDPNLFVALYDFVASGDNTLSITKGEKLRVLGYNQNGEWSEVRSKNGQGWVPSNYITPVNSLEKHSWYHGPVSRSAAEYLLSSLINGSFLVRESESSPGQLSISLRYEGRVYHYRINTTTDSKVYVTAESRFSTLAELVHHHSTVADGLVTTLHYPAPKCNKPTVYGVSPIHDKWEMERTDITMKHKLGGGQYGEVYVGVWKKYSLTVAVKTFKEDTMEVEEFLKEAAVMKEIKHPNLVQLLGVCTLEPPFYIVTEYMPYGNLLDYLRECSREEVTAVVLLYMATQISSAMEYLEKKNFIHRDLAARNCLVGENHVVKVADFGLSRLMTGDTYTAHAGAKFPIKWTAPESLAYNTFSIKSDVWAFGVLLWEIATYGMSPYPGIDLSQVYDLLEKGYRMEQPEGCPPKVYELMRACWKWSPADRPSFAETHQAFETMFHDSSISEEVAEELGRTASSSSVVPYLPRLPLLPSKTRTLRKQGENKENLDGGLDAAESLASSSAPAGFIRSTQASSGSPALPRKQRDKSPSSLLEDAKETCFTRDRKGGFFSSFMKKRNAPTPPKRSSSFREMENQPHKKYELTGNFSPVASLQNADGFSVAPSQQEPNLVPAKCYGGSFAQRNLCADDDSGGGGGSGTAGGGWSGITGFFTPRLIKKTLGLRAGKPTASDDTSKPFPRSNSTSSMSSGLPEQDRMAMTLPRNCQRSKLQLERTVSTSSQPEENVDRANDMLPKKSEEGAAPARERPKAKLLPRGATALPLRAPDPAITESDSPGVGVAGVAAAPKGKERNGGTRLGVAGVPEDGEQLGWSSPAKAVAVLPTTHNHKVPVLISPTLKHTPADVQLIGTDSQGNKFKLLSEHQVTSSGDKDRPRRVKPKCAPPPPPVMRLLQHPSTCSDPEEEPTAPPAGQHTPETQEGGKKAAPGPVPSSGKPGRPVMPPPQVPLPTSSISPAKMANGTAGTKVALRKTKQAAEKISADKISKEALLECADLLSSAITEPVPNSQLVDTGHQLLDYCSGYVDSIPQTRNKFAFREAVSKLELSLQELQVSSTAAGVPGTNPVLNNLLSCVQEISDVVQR"}, "[9]": {"target": "T9, DDR2(h) (Homo sapiens, UniProt Q16832)", "T9 construct": "purchased Millipore KinaseProfiler", "T9 sequence (Q16832 22-855)": "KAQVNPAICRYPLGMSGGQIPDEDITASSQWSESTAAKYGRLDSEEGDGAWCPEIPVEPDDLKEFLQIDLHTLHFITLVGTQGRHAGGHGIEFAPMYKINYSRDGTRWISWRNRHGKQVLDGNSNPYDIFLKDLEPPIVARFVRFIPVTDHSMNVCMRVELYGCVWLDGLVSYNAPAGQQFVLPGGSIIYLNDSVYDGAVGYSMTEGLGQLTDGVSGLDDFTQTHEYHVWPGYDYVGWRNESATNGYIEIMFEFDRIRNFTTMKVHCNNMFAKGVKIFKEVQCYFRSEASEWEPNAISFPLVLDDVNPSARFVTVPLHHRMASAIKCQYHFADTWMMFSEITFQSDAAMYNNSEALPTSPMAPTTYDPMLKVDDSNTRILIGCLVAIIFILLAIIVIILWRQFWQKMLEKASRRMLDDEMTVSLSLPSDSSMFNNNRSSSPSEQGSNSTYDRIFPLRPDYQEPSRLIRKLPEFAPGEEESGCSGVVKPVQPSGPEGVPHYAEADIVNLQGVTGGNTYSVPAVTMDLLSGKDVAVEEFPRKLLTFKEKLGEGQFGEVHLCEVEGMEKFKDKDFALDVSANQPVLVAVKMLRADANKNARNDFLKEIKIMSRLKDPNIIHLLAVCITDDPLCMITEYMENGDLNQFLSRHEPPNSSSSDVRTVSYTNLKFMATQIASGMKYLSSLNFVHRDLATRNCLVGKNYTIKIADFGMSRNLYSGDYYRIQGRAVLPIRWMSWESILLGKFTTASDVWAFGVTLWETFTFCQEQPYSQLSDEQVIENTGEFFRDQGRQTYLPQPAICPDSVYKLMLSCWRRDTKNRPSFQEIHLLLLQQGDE"}, "[10]": {"target": "T10, Abl(Y253F)(h) (Homo sapiens, UniProt P00519, Y253F)", "T10 construct": "purchased Millipore KinaseProfiler"}, "[11]": {"target": "T11, PAK3(h) (Homo sapiens, UniProt O75914)", "T11 construct": "purchased Millipore KinaseProfiler"}, "[12]": {"target": "T12, FGFR1(V561M)(h) (Homo sapiens, UniProt P11362, V561M)", "T12 construct": "purchased Millipore KinaseProfiler", "T12 sequence (P11362 22-822 V561M)": "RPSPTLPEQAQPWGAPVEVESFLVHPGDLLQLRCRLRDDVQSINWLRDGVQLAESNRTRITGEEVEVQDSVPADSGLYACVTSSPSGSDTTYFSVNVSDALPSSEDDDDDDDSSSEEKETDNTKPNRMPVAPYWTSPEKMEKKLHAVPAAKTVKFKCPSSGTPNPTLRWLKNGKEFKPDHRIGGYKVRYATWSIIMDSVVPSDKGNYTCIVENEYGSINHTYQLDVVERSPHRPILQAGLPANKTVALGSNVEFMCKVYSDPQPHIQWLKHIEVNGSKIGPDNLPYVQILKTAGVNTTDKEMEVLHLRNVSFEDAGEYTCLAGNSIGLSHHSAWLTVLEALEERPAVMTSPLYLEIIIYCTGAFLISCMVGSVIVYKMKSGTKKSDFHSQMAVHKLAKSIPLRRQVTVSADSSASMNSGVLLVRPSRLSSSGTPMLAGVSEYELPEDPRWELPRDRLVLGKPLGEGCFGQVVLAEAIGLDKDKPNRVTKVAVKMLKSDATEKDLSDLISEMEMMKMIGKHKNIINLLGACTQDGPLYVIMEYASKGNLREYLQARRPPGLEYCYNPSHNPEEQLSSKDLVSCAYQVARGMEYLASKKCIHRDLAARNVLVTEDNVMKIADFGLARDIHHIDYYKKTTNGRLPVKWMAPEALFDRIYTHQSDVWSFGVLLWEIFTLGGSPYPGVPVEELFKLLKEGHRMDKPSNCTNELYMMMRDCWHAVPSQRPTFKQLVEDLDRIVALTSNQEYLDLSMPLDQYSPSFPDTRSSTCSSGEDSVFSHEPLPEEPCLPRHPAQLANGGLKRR"}},
  "note": "Read-outs that look alike come from different tables or passages of the source.",
  "data": [
    {"molecule": "Cn1ncc(Cl)c1-c1cc(C(=O)N[C@H](CN)Cc2cccc(F)c2)sc1Cl", "note": "[GSK2110183]", "values": [
      {"measurement": "inhibition at 0.5 µM", "setting": "[1]", "value": -2, "unit": "%"},
      {"measurement": "inhibition at 10 µM", "setting": "[1]", "value": 11, "unit": "%"},
      {"measurement": "inhibition at 0.5 µM", "setting": "[2]", "value": -12, "unit": "%"},
      {"measurement": "inhibition at 10 µM", "setting": "[2]", "value": 7, "unit": "%"},
      {"measurement": "inhibition at 0.5 µM", "setting": "[3]", "value": -1, "unit": "%"},
      {"measurement": "inhibition at 10 µM", "setting": "[3]", "value": 3, "unit": "%"},
      {"measurement": "inhibition at 0.5 µM", "setting": "[4]", "value": -2, "unit": "%"},
      {"measurement": "inhibition at 10 µM", "setting": "[4]", "value": -4, "unit": "%"},
      {"measurement": "inhibition at 0.5 µM", "setting": "[5]", "value": -8, "unit": "%"},
      {"measurement": "inhibition at 10 µM", "setting": "[5]", "value": -13, "unit": "%"},
      {"measurement": "inhibition at 0.5 µM", "setting": "[6]", "value": 5, "unit": "%"},
      {"measurement": "inhibition at 10 µM", "setting": "[6]", "value": 26, "unit": "%"},
      {"measurement": "inhibition at 0.5 µM", "setting": "[7]", "value": -13, "unit": "%"},
      {"measurement": "inhibition at 10 µM", "setting": "[7]", "value": 17, "unit": "%"},
      {"measurement": "inhibition at 0.5 µM", "setting": "[8]", "value": -1, "unit": "%"},
      {"measurement": "inhibition at 10 µM", "setting": "[8]", "value": 1, "unit": "%"},
      {"measurement": "inhibition at 0.5 µM", "setting": "[9]", "value": 1, "unit": "%"},
      {"measurement": "inhibition at 10 µM", "setting": "[9]", "value": 6, "unit": "%"},
      {"measurement": "inhibition at 0.5 µM", "setting": "[10]", "value": 2, "unit": "%"},
      {"measurement": "inhibition at 10 µM", "setting": "[10]", "value": 9, "unit": "%"},
      {"measurement": "inhibition at 0.5 µM", "setting": "[11]", "value": -2, "unit": "%"},
      {"measurement": "inhibition at 10 µM", "setting": "[11]", "value": 62, "unit": "%"},
      {"measurement": "inhibition at 0.5 µM", "setting": "[12]", "value": -4, "unit": "%"},
      {"measurement": "inhibition at 10 µM", "setting": "[12]", "value": 16, "unit": "%"}
    ]},
    {"molecule": "Cn1ncc(Cl)c1-c1cc(C(=O)N[C@H](CN)Cc2ccc(F)c(F)c2)oc1Cl", "note": "[GSK2141795]", "values": [
      {"measurement": "inhibition at 0.5 µM", "setting": "[1]; 0.5 µM, read-out: % Inhibition", "value": -4, "unit": "%"},
      {"measurement": "inhibition at 10 µM", "setting": "[1]; 10 µM, read-out: % Inhibition", "value": 13, "unit": "%"},
      {"measurement": "inhibition at 0.5 µM", "setting": "[2]; 0.5 µM, read-out: % Inhibition", "value": -10, "unit": "%"},
      {"measurement": "inhibition at 10 µM", "setting": "[2]; 10 µM, read-out: % Inhibition", "value": 41, "unit": "%"},
      {"measurement": "inhibition at 0.5 µM", "setting": "[3]; 0.5 µM, read-out: % Inhibition", "value": -13, "unit": "%"},
      {"measurement": "inhibition at 10 µM", "setting": "[3]; 10 µM, read-out: % Inhibition", "value": 3, "unit": "%"},
      {"measurement": "inhibition at 0.5 µM", "setting": "[4]; 0.5 µM, read-out: % Inhibition", "value": -5, "unit": "%"},
      {"measurement": "inhibition at 10 µM", "setting": "[4]; 10 µM, read-out: % Inhibition", "value": -5, "unit": "%"},
      {"measurement": "inhibition at 0.5 µM", "setting": "[5]; 0.5 µM, read-out: % Inhibition", "value": -17, "unit": "%"},
      {"measurement": "inhibition at 10 µM", "setting": "[5]; 10 µM, read-out: % Inhibition", "value": -9, "unit": "%"},
      {"measurement": "inhibition at 0.5 µM", "setting": "[6]; 0.5 µM, read-out: % Inhibition", "value": -2, "unit": "%"},
      {"measurement": "inhibition at 10 µM", "setting": "[6]; 10 µM, read-out: % Inhibition", "value": 25, "unit": "%"},
      {"measurement": "inhibition at 0.5 µM", "setting": "[7]; 0.5 µM, read-out: % Inhibition", "value": 4, "unit": "%"},
      {"measurement": "inhibition at 10 µM", "setting": "[7]; 10 µM, read-out: % Inhibition", "value": 39, "unit": "%"},
      {"measurement": "inhibition at 0.5 µM", "setting": "[8]; 0.5 µM, read-out: % Inhibition", "value": -1, "unit": "%"},
      {"measurement": "inhibition at 10 µM", "setting": "[8]; 10 µM, read-out: % Inhibition", "value": 7, "unit": "%"},
      {"measurement": "inhibition at 0.5 µM", "setting": "[9]; 0.5 µM, read-out: % Inhibition", "value": 3, "unit": "%"},
      {"measurement": "inhibition at 10 µM", "setting": "[9]; 10 µM, read-out: % Inhibition", "value": 12, "unit": "%"},
      {"measurement": "inhibition at 0.5 µM", "setting": "[10]; 0.5 µM, read-out: % Inhibition", "value": -18, "unit": "%"},
      {"measurement": "inhibition at 10 µM", "setting": "[10]; 10 µM, read-out: % Inhibition", "value": -11, "unit": "%"},
      {"measurement": "inhibition at 0.5 µM", "setting": "[11]; 0.5 µM, read-out: % Inhibition", "value": 6, "unit": "%"},
      {"measurement": "inhibition at 10 µM", "setting": "[11]; 10 µM, read-out: % Inhibition", "value": 28, "unit": "%"},
      {"measurement": "inhibition at 0.5 µM", "setting": "[12]; 0.5 µM, read-out: % Inhibition", "value": 15, "unit": "%"},
      {"measurement": "inhibition at 10 µM", "setting": "[12]; 10 µM, read-out: % Inhibition", "value": 36, "unit": "%"}
    ]}
  ]
}
